# Measured values as given in article PMC5152921, “Evolutionary and Functional Diversification of the Vitamin D Receptor-Lithocholic Acid Partnership” (PLoS ONE, 2016).
# How the values were obtained:
# Assay in all cases: Transient transactivation assay (XREM-Luc, HepG2)
# Type in all cases: cell-based
# Details in all cases: 100 μM LCA
# Bichir VDR = target: T1, Bichir VDR (Polypterus senegalus, UniProt A0A088GJ14)
# T1 sequence (A0A088GJ14 1-421): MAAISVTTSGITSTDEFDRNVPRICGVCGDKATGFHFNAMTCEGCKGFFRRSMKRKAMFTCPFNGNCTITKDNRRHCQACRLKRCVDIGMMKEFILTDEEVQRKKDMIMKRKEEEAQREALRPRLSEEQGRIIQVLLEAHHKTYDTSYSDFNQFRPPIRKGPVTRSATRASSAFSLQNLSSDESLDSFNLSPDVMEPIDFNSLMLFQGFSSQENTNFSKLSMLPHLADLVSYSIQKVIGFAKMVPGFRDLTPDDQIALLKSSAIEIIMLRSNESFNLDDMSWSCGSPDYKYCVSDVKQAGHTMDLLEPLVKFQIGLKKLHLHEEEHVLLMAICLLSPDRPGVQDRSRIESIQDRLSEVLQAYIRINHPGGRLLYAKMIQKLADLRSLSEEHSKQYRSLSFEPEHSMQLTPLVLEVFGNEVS
# T1 sequence (P19793 1-462 partner): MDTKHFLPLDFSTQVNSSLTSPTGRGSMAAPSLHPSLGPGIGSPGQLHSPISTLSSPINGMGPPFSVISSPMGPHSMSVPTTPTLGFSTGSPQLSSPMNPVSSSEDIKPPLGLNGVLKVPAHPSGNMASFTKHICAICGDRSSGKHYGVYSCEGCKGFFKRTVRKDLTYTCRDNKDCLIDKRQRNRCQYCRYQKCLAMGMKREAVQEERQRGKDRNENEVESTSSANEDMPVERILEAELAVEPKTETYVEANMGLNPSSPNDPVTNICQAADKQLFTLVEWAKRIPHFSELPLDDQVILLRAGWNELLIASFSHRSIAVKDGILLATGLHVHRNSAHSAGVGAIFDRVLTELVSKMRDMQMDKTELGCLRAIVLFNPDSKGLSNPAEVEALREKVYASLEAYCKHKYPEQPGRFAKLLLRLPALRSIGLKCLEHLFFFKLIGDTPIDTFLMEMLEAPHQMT
# Protocol: (§1) HepG2 cells (American Type Culture Collection #HB-8065) were cultured in T75 flasks with vented caps (Corning Life Sciences, Corning, NY) using Minimum Essential Medium (MEM) with phenol red supplemented with 10% fetal bovine serum, 1 mM sodium pyruvate, and 1X MEM non-essential amino acids. Cells were maintained following standard protocols in a 5% CO2 incubator set at 37°C, and split when 80–90% confluent.
# (§2) For the transient transactivation assays, HepG2 cells were seeded in 96-well tissue culture plates at a density of 2.5x10^4 cells per well in complete phenol red-free MEM, and allowed to recover overnight. Transfections were performed the following day using Lipofectamine 2000 (Life Technologies, Grand Island, NY) as described previously. For functional comparisons, 89.7 ng/well of full-length pSG5-VDR was co-transfected with 19.2 ng/well human XREM-Luc reporter and 4.5 ng/well of pRL-CMV as an internal luciferase control. Coregulator studies included the addition of 18.3 ng/well of human coregulators (pCDNA-RXRWT, pCDNA-RXRAF2, pSG5-SRC1, pSG5-GRIP1 or pSG5-ACTR) where indicated. […] Controls include 120 nM 1,25D3 as a positive control, and ethanol as a vehicle control. Twenty-four hours post-exposure cells were tested for luciferase activity using the Dual-Glo Luciferase Assay System (Promega Corporation, Madison, WI) according to the manufacturer’s protocols. Luciferase data were first normalized to the pRL-CMV internal luciferase control. […] To calculate the impact of coregulators on VDR transactivation, VDR response in the presence of coregulators was normalized to VDR alone. All experiments were repeated 3 times and conducted as groups of 4 replicate wells. VDR response in the absence of coregulators was analyzed using a 1-way ANOVA followed by Dunnett’s multiple comparisons test. To examine the effects of different coregulators on VDR activation, data were analyzed using a 2-way ANOVA followed by Bonferroni’s multiple comparisons test in GraphPad Prism (GraphPad Inc, San Diego, CA).
# Human VDR = target: T2, Human VDR (Homo sapiens, UniProt P11473)
# T2 sequence (P11473 1-427): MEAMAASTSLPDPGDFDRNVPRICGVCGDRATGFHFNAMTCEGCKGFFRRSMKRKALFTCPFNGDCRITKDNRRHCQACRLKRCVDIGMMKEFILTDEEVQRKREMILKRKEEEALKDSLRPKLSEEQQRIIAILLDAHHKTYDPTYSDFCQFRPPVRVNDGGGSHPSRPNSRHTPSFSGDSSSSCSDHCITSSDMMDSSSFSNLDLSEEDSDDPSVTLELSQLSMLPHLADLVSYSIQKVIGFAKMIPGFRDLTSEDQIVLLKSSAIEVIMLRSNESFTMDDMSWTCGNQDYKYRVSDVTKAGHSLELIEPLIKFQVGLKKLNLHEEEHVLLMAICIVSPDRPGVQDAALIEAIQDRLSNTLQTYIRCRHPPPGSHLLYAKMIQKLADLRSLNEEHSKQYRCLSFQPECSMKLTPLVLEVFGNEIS
# Protocol: as §1, §2
# Lamprey VDR = target: T3, Lamprey VDR (Petromyzon marinus, UniProt Q7ZZY9)
# T3 sequence (Q7ZZY9 1-406): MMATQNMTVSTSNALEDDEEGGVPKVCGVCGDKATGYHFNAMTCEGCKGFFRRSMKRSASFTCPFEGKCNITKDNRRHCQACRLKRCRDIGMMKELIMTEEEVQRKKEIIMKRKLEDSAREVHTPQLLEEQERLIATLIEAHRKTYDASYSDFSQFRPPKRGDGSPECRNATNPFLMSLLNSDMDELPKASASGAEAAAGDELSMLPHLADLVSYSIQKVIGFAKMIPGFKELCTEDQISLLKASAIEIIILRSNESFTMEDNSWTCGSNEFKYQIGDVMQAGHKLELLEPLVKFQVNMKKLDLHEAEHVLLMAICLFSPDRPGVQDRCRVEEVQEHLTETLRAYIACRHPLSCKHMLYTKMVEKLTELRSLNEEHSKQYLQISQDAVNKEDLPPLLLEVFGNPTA
# T3 sequence (P19793 1-462 partner): T1 sequence (P19793 1-462 partner)
# Protocol: as §1, §2
# [1] = any SRC/p160 co-activator, presence or absence of RXRWT
# [2] = co-transfected human RXRWT, vs VDR alone
compound,measurement,setting,value
"C[C@H](CCC(=O)O)[C@H]1CC[C@H]2[C@@H]3CC[C@@H]4C[C@H](O)CC[C@]4(C)[C@H]3CC[C@]12C [LCA, 5β-cholanic acid-3α-ol]",Effect of SRC/p160 co-activators on VDR transactivation,Bichir VDR; [1],No change in transactivation
same,Effect of exogenous human RXRWT on VDR transactivation,Bichir VDR; [2],no effect
same,Effect of exogenous human RXRWT on VDR transactivation,Human VDR; [2],significantly enhanced transactivation
same,Effect of RXRWT+SRC1 or RXRWT+GRIP1 on VDR transactivation,Human VDR; compared to either coregulator individually,significantly enhanced VDR transactivation
same,Effect of SRC/p160 co-activators on VDR transactivation,Lamprey VDR; [1],No change in transactivation
same,Effect of exogenous human RXRWT on VDR transactivation,Lamprey VDR; [2],no effect
